This is an account of results in patent US20240336622A1 (The Board of Regents of The University of Texas System, priority 2021, published 2024).

Series [1] concerns PARP1. Kind of series: PARP1 trapping activity of nimbolide analogs (FIGS. 19, 20). Type of series: cell-based. The settings on record: for PARP1 trapping by nimbolide analogs: FIGS. 19 and 20.
In series [2] the test system is UWB1 cells. The series can be described thus: cells.
Series [3] concerns UWB1, A673, Fadu, H2058, H1048, MDA-MB-468 cells. The series can be described thus: Cytotoxicity in cancer cell lines with different genetic background (cell titer glo). The format is cell-based. The settings on record: 1 μM for 96 hours. An excerpt:
Cells were then subjected to cell titer glo analysis. Data represent mean±SEM.

The test system of series [4] is UWB1 cells.
Series [5] deals with H889 and H82 cells. Kind of series: Sensitivity of Talazoparib-resistant small cell lung cancer cells. Type of series: cell-based.
The mark [6] stands for this setting: read-out: IC50 (μM) UWB1 cells, UWB1 cell viability.

Structures are written as SMILES. Like-named read-outs stand apart in the source and are kept apart here.

On to `CC[Si](CC)(CC)O[C@H]1C(=O)[C@H](CC(=O)OC)[C@@]2(C)C(=O)C=C[C@@]3(C)C(=O)O[C@@H]1[C@H]23` [S-39], for which, in series [1], the “PARP1 trapping by nimbolide analogs” value was “induce PARP1 trapping”. In addition, in series [2] (read-out: IC50 (μM) UWB1 cells), the IC50 is 1.18 µM.

Turning to `CNCc1ccc(-c2[nH]c3cc(F)cc4c3c2CCNC4=O)cc1` [Rucaparib, rucaparib], the “sensitivity of cell lines (UWB1, A673, Fadu, H2058, H1048, MDA-MB-468)” value in series [3] is “different degrees of sensitivity”.

Turning to `O=C(c1cc(Cc2n[nH]c(=O)c3ccccc23)ccc1F)N1CCN(C(=O)C2CC2)CC1` [Olaparib, olaparib], the “sensitivity of cell lines (UWB1, A673, Fadu, H2058, H1048, MDA-MB-468)” value in series [3] is reported as “different degrees of sensitivity”.

Take `COC(=O)C[C@H]1[C@]2(C)C3=C(C)[C@H](C4=CC(=O)OC4OC(C)=O)C[C@H]3O[C@@H]2[C@@H]2OC(=O)[C@]3(C)C=CC(=O)[C@@]1(C)[C@@H]23` (stereo partly shown) [S-51]: in series [4] (setting [6]), the IC50 stood at 0.954 µM.

For the molecule `C=C1[C@H](O[C@H]2CCC(C)=C2I)[C@@H]2OC(=O)[C@]3(C)C=CC(=O)[C@@](C)([C@@H]23)[C@H]1CC(=O)OC` [S-84], the “PARP1 trapping by nimbolide analogs” value in series [1] is “induce profound PARP1 trapping”. Moreover, the IC50 in series [2] (setting [6]) is 0.183 µM.

With `COC(=O)C[C@H]1[C@]2(C)C3=C(C)[C@H](c4ccoc4-c4ccc(O[Si](C)(C)C(C)(C)C)cc4)C[C@H]3O[C@@H]2[C@@H]2OC(=O)[C@]3(C)C=CC(=O)[C@@]1(C)[C@@H]23` [S-46], the “trapping activity compared to nimbolide” value in series [1] (FIG. 19) was “more potent trapping activity”. For the same molecule, the “PARP1 trapping by nimbolide analogs” value in series [1] was “induce PARP1 trapping”. Besides, the “cytotoxicity against UWB1 cells” value in series [4] is listed as “excellent cytotoxicity”. Also, in series [2] (setting [6]), the IC50 stood at 0.089 µM.

Take `Cn1ncnc1[C@H]1c2n[nH]c(=O)c3cc(F)cc(c23)N[C@@H]1c1ccc(F)cc1` [Talazoparib, talazoparib]: in series [5], the “sensitivity of H889 and H82 cells” value is recorded as “resistant”.

Turning to `COC(=O)C[C@H]1[C@@H]2CC3=C(C)[C@H](c4cccc(O[Si](C)(C)C(C)(C)C)c4)C[C@@H]3O[C@@H]2[C@@H]2OC(=O)[C@]3(C)C=CC(=O)[C@@]1(C)[C@@H]23` [S-113], the IC50 in series [2] (read-out: IC50 (μM) UWB1 cells) was 0.216 µM.

As for `COC(=O)C[C@H]1[C@]2(C)C3=C(C)[C@H](c4ccc(O[Si](C)(C)C(C)(C)C)cc4)C[C@H]3O[C@@H]2[C@@H]2OC(=O)[C@]3(C)C=CC(=O)[C@@]1(C)[C@@H]23` [S-117], in series [2] (read-out: IC50 (μM) UWB1 cells), the IC50 was found to be 0.0788 µM.

With `COC(=O)C[C@H]1[C@]2(C)C3=C(C)[C@H](c4ccc(O)cc4)C[C@H]3O[C@@H]2[C@@H]2OC(=O)[C@]3(C)C=CC(=O)[C@@]1(C)[C@@H]23` [S-123], the half-maximal inhibitory concentration (IC50) in series [2] (setting [6]) was found to be 0.464 µM.

With `COC(=O)C[C@H]1[C@]2(C)C3=C(C)[C@H](c4ccoc4)C[C@H]3O[C@@H]2[C@H](OC(C)=O)[C@H]2C(C)=CCC(=O)[C@]12C` [S-62, nimbinene], the IC50 in series [2] (setting [6]) was greater than 10 µM.

`C=C1[C@H](O[C@@H]2C[C@@H](c3ccoc3)C(C)=C2I)[C@@H]2OC(=O)[C@]3(C)C=CC(=O)[C@@](C)([C@@H]23)[C@H]1CC(=O)OC` [S-26]: the “PARP1 trapping by nimbolide analogs” value in series [1] is recorded as “induce profound PARP1 trapping”. In addition, the IC50 in series [2] (read-out: IC50 (μM) UWB1 cells) was 0.226 µM.

`COC(=O)C[C@H]1[C@]2(C)C3=C(C)[C@H](c4ccccc4)C[C@H]3O[C@@H]2[C@@H]2OC(=O)[C@]3(C)C=CC(=O)[C@@]1(C)[C@@H]23` [S-101]: in series [2] (setting [6]), the IC50 was 0.3 µM.

Consider `COC(=O)C[C@H]1[C@@H]2CC3=C(C)[C@H](c4ccc(OC)cc4)C[C@@H]3O[C@@H]2[C@@H]2OC(=O)[C@]3(C)C=CC(=O)[C@@]1(C)[C@@H]23` [S-108], for which, in series [2] (setting [6]), the IC50 came to 0.11 µM.

In the case of `COC(=O)C[C@H]1[C@@H]2CC3=C(C)[C@@H](c4ccc(C(C)(C)C)cc4)C[C@@H]3O[C@@H]2[C@@H]2OC(=O)[C@]3(C)C=CC(=O)[C@@]1(C)[C@@H]23` [S-144], the IC50 in series [2] (setting [6]) is 0.14 µM.

Turning to `COC(=O)C[C@H]1[C@@H]2CC3=C(C)[C@@H](c4ccc(OC)cc4)C[C@@H]3O[C@@H]2[C@@H]2OC(=O)[C@]3(C)C=CC(=O)[C@@]1(C)[C@@H]23` [S-109], the IC50 in series [2] (setting [6]) is 0.17 µM.

For the molecule `COC(=O)C[C@H]1[C@@H]2CC3=C(C)[C@@H](c4ccc(-c5cc(C(C)(C)C)cc(C(C)(C)C)c5)cc4)C[C@H]3O[C@@H]2[C@@H]2OC(=O)[C@]3(C)C=CC(=O)[C@@]1(C)[C@@H]23` [S-136], the IC50 in series [2] (setting [6]) came to 0.0934 µM.

Regarding `C=C1[C@H](O[C@H]2C[C@@H](c3ccoc3)C(C)=C2I)[C@@H]2OC(=O)[C@]3(C)C=CC(=O)[C@@](C)([C@@H]23)[C@H]1CC(=O)OC` [S-27], the IC50 in series [2] (read-out: IC50 (μM) UWB1 cells) was 0.415 µM.

With `C#CCOC(=O)c1ccc(-c2occc2[C@@H]2C[C@H]3O[C@@H]4[C@@H]5OC(=O)[C@]6(C)C=CC(=O)[C@](C)([C@@H](CC(=O)OC)[C@]4(C)C3=C2C)[C@@H]56)cc1` [S-112a], the IC50 in series [2] (setting [6]) stood at 0.198 µM.

In the case of `COC(=O)C[C@H]1[C@@H]2CC3=C(C)[C@H](c4ccc(OS(=O)(=O)C(F)(F)F)cc4)C[C@@H]3O[C@@H]2[C@@H]2OC(=O)[C@]3(C)C=CC(=O)[C@@]1(C)[C@@H]23` [S-130], in series [2] (setting [6]), the IC50 turned out to be 0.225 µM.

For `COC(=O)C[C@H]1[C@@H]2CC3=C(C)[C@@H](c4ccc(OS(=O)(=O)c5c(C)cc(C)cc5C)cc4)C[C@@H]3O[C@@H]2[C@@H]2OC(=O)[C@]3(C)C=CC(=O)[C@@]1(C)[C@@H]23` [S-139], in series [2] (setting [6]), the IC50 was determined as 0.14 µM.

For the molecule `COC(=O)C[C@H]1[C@@H]2CC3=C(C)[C@H](c4ccc(OC(=O)C(C)(C)C)cc4)C[C@@H]3O[C@@H]2[C@@H]2OC(=O)[C@]3(C)C=CC(=O)[C@@]1(C)[C@@H]23` [S-126], the IC50 in series [2] (setting [6]) is 0.141 µM.

For the molecule `COC(=O)C[C@H]1[C@@H]2CC3=C(C)[C@@H](c4ccc(-c5cc(C(C)(C)C)cc(C(C)(C)C)c5)cc4)C[C@@H]3O[C@@H]2[C@@H]2OC(=O)[C@]3(C)C=CC(=O)[C@@]1(C)[C@@H]23` [S-137], the IC50 in series [2] (setting [6]) worked out at 0.169 µM.

`COC(=O)C[C@H]1[C@]2(C)C3=C(C)[C@H](c4ccoc4-c4ccc(OC)cc4C)C[C@H]3O[C@@H]2[C@@H]2OC(=O)[C@]3(C)C=CC(=O)[C@@]1(C)[C@@H]23` [S-48]: the IC50 in series [2] (setting [6]) came to 0.212 µM.

For the molecule `C=C1[C@H](O[C@H]2C=C(C)[C@H](c3ccoc3)C2)[C@@H]2OC(=O)[C@]3(C)C=CC(=O)[C@@](C)([C@@H]23)[C@H]1CC(=O)OC` [S-54], the IC50 in series [2] (setting [6]) was determined as 0.265 µM.

`COC(=O)C[C@H]1[C@]2(C)C3=C(C)[C@H](c4ccoc4)C[C@H]3O[C@@H]2[C@H](O)[C@@H]2[C@]1(C)C(=O)C=C[C@@]2(C)C(=O)OC` [S-63, 6-deacetylnimbin]: in series [2] (setting [6]), the IC50 was greater than 10 µM.

`COC(=O)C[C@H]1[C@]2(C)C3=C(C)[C@H](c4ccoc4Br)C[C@H]3O[C@@H]2[C@@H]2OC(=O)[C@]3(C)C=CC(=O)[C@@]1(C)[C@@H]23` [S-41]: the IC50 in series [2] (setting [6]) turned out to be 0.465 µM.

In the case of `COC(=O)C[C@H]1[C@]2(C)C3=C(C)[C@H](C4=CC(=O)OC4OC(C)=O)C[C@H]3O[C@@H]2[C@@H]2OC(=O)[C@]3(C)C=CC(=O)[C@@]1(C)[C@@H]23` (stereo partly shown) [S-50], in series [2] (setting [6]), the IC50 is 1.04 µM.

`COC(=O)C[C@H]1[C@@H]2CC3=C(C)[C@H](c4ccccc4O[Si](C)(C)C(C)(C)C)C[C@@H]3O[C@@H]2[C@@H]2OC(=O)[C@]3(C)C=CC(=O)[C@@]1(C)[C@@H]23` [S-127]: the IC50 in series [2] (read-out: IC50 (μM) UWB1 cells) came to 0.927 µM.

Consider `COC(=O)C[C@H]1[C@]2(C)C3=C(C)[C@H](c4ccc(-c5cc(C(C)(C)C)cc(C(C)(C)C)c5)cc4)C[C@H]3O[C@@H]2[C@@H]2OC(=O)[C@]3(C)C=CC(=O)[C@@]1(C)[C@@H]23` [S-132], for which the half-inhibitory concentration (IC50) in series [2] (setting [6]) worked out at 0.142 µM.

As for `COC(=O)C[C@H]1[C@@H]2CC3=C(C)[C@H](c4ccc(-c5cc(C(C)(C)C)cc(C(C)(C)C)c5)cc4)C[C@@H]3O[C@@H]2[C@@H]2OC(=O)[C@]3(C)C=CC(=O)[C@@]1(C)[C@@H]23` [S-134], the IC50 in series [2] (setting [6]) is 0.091 µM.
